# From ChEMBL document CHEMBL5715260, “Selectivity Literature for EUbOPEN Chemogenomic Library” (2024)
# Columns and labels:
# [1] = biological target: T1, Hepatocyte nuclear factor 4-alpha (Homo sapiens) (UniProt P41235); assay: Selectivity interaction (Reporter gene assay) EUB0000190b HNF4A; set-up: recommended concentration 1 uM
# T1 sequence (whole entry): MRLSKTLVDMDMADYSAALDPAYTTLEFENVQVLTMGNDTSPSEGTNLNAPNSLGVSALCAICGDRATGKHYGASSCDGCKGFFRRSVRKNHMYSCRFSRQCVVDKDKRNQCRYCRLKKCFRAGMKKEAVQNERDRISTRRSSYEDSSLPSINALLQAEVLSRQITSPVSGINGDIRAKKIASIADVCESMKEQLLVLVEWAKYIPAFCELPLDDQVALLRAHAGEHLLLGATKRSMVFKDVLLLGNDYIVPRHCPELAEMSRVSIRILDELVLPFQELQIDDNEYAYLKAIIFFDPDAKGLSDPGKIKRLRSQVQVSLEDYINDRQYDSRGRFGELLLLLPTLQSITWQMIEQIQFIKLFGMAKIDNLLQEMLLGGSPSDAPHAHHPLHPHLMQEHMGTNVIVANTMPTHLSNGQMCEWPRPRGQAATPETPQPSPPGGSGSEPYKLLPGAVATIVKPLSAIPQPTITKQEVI
# [2] = biological target: T2, Nuclear receptor subfamily 2 group C member 1 (Homo sapiens) (UniProt P13056); assay: Selectivity interaction (Reporter gene assay) EUB0000190b NR2C1; set-up: recommended concentration 1 uM
# T2 sequence (whole entry): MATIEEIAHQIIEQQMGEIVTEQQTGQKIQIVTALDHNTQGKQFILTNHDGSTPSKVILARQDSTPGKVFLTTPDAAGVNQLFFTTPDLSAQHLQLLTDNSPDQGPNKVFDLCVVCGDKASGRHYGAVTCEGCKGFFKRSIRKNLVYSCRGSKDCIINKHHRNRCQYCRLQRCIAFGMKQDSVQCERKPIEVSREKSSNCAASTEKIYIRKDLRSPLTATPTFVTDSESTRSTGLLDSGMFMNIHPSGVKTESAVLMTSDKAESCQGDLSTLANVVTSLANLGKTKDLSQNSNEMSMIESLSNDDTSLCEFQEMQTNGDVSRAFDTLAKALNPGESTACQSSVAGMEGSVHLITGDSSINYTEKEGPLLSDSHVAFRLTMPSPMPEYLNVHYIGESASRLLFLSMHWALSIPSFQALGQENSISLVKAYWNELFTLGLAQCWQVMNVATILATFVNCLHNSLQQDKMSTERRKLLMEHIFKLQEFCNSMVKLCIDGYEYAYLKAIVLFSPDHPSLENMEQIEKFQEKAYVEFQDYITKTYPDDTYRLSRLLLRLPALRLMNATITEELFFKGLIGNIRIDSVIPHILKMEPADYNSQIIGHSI
# [3] = biological target: Nuclear receptor subfamily 2 group E member 1 (Homo sapiens) (UniProt Q9Y466); assay: Selectivity interaction (Reporter gene assay) EUB0000190b NR2E1; set-up: recommended concentration 1 uM
# Nuclear receptor subfamily 2 group E member 1 (Homo sapiens), sequence (Q9Y466 whole entry): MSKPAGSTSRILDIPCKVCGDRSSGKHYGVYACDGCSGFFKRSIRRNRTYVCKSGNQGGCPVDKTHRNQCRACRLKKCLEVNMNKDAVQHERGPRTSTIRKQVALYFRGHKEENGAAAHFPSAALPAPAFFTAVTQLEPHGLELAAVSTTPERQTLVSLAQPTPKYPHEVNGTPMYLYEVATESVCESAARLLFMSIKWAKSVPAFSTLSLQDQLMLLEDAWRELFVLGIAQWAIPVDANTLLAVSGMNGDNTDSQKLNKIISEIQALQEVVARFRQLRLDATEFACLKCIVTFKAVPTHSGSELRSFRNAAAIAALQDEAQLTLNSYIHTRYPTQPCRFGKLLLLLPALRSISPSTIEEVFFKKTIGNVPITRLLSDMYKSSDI
# [4] = biological target: Nuclear receptor subfamily 4immunitygroup A member 1 (Homo sapiens) (UniProt P22736); assay: Selectivity interaction (Reporter gene assay) EUB0000190b NR4A1; set-up: recommended concentration 1 uM
# Nuclear receptor subfamily 4immunitygroup A member 1 (Homo sapiens), sequence (P22736 whole entry): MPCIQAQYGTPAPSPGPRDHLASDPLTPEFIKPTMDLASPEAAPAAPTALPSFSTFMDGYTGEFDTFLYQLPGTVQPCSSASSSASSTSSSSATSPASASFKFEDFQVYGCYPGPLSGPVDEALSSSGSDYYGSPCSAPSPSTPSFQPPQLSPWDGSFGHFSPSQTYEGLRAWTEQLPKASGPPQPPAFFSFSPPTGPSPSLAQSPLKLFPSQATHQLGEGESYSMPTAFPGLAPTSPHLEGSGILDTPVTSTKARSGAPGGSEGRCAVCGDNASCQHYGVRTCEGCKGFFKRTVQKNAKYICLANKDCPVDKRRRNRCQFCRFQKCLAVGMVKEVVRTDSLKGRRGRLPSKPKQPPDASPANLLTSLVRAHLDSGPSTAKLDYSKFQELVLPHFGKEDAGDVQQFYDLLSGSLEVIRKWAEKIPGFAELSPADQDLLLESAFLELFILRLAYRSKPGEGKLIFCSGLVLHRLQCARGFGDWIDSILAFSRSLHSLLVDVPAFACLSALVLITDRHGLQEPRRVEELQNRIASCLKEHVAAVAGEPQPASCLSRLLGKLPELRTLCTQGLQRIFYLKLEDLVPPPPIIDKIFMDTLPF
# [5] = biological target: Steroidogenic factor 1 (Homo sapiens) (UniProt Q13285); assay: Selectivity interaction (Reporter gene assay) EUB0000190b NR5A1; set-up: recommended concentration 1 uM
# Steroidogenic factor 1 (Homo sapiens), sequence (Q13285 whole entry): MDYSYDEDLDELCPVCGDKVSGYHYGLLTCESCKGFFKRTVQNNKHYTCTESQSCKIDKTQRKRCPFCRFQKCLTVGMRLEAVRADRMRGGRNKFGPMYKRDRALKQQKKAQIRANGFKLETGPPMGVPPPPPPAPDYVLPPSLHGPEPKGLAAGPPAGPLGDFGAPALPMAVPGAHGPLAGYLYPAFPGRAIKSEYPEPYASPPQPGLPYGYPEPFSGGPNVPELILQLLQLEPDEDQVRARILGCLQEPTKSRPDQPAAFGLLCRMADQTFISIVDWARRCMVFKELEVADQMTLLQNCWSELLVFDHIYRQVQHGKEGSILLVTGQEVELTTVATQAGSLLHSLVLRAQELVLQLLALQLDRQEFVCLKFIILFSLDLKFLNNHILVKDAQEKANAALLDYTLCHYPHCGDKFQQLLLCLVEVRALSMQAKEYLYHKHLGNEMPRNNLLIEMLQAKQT
# [6] = biological target: T3, Alpha trans-inducing protein (Human alphaherpesvirus 1) (UniProt A0A5J6DW59); assay: Selectivity interaction (Reporter gene assay) EUB0000190b UL48; set-up: recommended concentration 1 uM
# T3 sequence (A0A5J6DW59 as listed by the source): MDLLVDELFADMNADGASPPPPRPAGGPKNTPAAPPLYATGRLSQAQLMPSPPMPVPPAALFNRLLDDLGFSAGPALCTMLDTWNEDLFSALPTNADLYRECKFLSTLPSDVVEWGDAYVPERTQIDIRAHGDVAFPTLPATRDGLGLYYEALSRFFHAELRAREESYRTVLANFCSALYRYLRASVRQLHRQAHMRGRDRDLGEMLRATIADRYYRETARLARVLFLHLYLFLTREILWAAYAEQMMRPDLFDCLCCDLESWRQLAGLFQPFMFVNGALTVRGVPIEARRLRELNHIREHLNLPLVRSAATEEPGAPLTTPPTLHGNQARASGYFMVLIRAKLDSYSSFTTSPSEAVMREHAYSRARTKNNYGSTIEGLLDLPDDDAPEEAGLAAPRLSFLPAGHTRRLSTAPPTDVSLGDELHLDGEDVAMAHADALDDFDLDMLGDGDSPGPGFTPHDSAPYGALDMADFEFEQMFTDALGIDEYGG
# [7] = biological target: T4, Retinoic acid receptor RXR-alpha (Homo sapiens) (UniProt P19793); assay: Selectivity interaction (Reporter gene assay) EUB0000190b RXRA; set-up: recommended concentration 1 uM; settings: reference bexarotene 1 uM, Selectivity number of off-targets 0.0, Selectivity number of targets 1.0, Source Knowledge inhouse
# T4 sequence (whole entry): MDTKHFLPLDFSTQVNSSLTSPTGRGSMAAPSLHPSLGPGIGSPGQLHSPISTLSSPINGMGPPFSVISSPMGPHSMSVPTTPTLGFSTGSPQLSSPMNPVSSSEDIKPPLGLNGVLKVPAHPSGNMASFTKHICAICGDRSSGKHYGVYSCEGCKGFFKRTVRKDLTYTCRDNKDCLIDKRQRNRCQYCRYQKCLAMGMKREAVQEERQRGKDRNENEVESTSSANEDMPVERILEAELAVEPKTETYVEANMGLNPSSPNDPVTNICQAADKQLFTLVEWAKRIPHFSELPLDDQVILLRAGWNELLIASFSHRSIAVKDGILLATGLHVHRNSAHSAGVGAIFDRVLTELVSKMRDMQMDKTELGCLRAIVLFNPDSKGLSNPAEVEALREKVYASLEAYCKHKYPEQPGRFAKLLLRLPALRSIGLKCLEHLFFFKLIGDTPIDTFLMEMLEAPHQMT
# [8] = biological target: Peroxisome proliferator-activated receptor delta (Homo sapiens) (UniProt Q03181); assay: Selectivity interaction (Reporter gene assay) EUB0000185b PPARD; set-up: recommended concentration 1 uM; settings: screened at recom. conc., Selectivity number of off-targets 1.0, Selectivity number of targets 19.0, Source Knowledge inhouse
# Peroxisome proliferator-activated receptor delta (Homo sapiens), sequence (Q03181 whole entry): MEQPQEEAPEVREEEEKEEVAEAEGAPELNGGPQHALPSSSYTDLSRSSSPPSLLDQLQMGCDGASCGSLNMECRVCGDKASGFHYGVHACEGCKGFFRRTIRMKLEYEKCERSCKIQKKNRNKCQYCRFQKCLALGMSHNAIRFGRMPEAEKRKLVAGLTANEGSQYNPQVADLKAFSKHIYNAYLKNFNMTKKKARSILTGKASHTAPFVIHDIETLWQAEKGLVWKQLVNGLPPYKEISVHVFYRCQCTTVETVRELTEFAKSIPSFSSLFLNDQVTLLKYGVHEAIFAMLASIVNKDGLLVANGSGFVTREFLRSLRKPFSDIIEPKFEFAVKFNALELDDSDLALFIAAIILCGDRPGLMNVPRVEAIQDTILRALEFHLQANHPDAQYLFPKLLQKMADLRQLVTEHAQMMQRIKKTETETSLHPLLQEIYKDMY
# [9] = biological target: T1, Hepatocyte nuclear factor 4-alpha (Homo sapiens); assay: Selectivity interaction (Reporter gene assay) EUB0000185b HNF4A; set-up: recommended concentration 1 uM
# [10] = biological target: T2, Nuclear receptor subfamily 2 group C member 1 (Homo sapiens); assay: Selectivity interaction (Reporter gene assay) EUB0000185b NR2C1; set-up: recommended concentration 1 uM
# [11] = biological target: Nuclear receptor subfamily 2 group E member 1 (Homo sapiens) (UniProt Q9Y466); assay: Selectivity interaction (Reporter gene assay) EUB0000185b NR2E1; set-up: recommended concentration 1 uM
# [12] = biological target: Nuclear receptor subfamily 4immunitygroup A member 1 (Homo sapiens) (UniProt P22736); assay: Selectivity interaction (Reporter gene assay) EUB0000185b NR4A1; set-up: recommended concentration 1 uM
# [13] = biological target: Steroidogenic factor 1 (Homo sapiens) (UniProt Q13285); assay: Selectivity interaction (Reporter gene assay) EUB0000185b NR5A1; set-up: recommended concentration 1 uM
# [14] = biological target: T3, Alpha trans-inducing protein (Human alphaherpesvirus 1); assay: Selectivity interaction (Reporter gene assay) EUB0000185b UL48; set-up: recommended concentration 1 uM
# [15] = biological target: T4, Retinoic acid receptor RXR-alpha (Homo sapiens); assay: Selectivity interaction (Reporter gene assay) EUB0000185b RXRA; set-up: recommended concentration 1 uM; settings: reference bexarotene 1 uM, Selectivity number of off-targets 0.0, Selectivity number of targets 1.0, Source Knowledge inhouse
# [16] = biological target: Adenosine receptor A1 (Homo sapiens) (UniProt P30542); assay: Selectivity interaction (CEREP panel) EUB0000089c ADORA1; set-up: recommended concentration 1 uM; settings: at 10 µM
# Adenosine receptor A1 (Homo sapiens), sequence (P30542 whole entry): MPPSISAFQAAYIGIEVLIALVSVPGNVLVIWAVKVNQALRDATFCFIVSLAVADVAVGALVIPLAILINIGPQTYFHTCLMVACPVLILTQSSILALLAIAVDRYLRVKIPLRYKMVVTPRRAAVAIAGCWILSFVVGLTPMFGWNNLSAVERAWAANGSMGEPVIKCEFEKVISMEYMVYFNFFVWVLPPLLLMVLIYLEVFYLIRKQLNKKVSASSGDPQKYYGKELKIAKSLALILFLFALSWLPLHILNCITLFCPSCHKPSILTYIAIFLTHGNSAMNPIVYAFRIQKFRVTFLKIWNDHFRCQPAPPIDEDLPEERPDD
# [17] = biological target: Adenosine receptor A2a (Homo sapiens) (UniProt P29274); assay: Selectivity interaction (CEREP panel) EUB0000089c ADORA2A; set-up: recommended concentration 1 uM; settings: at 10 µM
# Adenosine receptor A2a (Homo sapiens), sequence (P29274 whole entry): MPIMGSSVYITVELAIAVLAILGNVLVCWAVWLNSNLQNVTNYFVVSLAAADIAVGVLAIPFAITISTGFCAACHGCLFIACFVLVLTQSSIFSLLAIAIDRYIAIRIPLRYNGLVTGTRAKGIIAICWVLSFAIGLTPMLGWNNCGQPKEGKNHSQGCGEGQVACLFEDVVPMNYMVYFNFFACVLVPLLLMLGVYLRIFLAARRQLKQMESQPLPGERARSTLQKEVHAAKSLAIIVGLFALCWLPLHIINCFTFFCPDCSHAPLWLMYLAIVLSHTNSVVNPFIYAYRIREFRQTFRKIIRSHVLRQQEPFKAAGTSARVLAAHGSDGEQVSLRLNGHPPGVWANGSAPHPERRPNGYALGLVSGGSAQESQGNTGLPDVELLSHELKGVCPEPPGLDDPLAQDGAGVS
# [18] = biological target: 5-hydroxytryptamine receptor 2B (Homo sapiens) (UniProt P41595); assay: Selectivity interaction (CEREP panel) EUB0000089c HTR2B; set-up: recommended concentration 1 uM; settings: at 10 µM
# 5-hydroxytryptamine receptor 2B (Homo sapiens), sequence (P41595 whole entry): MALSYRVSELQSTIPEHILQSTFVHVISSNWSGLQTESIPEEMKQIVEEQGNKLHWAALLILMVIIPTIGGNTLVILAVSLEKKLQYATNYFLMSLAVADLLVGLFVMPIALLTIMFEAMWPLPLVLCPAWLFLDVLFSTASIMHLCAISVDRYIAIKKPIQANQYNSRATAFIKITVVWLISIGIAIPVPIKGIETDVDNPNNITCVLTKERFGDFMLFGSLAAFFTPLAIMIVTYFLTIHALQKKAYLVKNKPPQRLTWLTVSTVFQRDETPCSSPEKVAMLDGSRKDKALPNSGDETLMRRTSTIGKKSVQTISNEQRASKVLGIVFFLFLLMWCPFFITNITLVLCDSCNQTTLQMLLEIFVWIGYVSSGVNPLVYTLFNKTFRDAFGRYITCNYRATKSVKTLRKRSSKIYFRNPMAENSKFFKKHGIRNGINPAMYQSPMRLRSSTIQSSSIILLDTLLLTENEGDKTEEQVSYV
# [19] = biological target: Sodium-dependent noradrenaline transporter (Homo sapiens) (UniProt P23975); assay: Selectivity interaction (CEREP panel) EUB0000089c SLC6A2; set-up: recommended concentration 1 uM; settings: at 10 µM
# Sodium-dependent noradrenaline transporter (Homo sapiens), sequence (P23975 whole entry): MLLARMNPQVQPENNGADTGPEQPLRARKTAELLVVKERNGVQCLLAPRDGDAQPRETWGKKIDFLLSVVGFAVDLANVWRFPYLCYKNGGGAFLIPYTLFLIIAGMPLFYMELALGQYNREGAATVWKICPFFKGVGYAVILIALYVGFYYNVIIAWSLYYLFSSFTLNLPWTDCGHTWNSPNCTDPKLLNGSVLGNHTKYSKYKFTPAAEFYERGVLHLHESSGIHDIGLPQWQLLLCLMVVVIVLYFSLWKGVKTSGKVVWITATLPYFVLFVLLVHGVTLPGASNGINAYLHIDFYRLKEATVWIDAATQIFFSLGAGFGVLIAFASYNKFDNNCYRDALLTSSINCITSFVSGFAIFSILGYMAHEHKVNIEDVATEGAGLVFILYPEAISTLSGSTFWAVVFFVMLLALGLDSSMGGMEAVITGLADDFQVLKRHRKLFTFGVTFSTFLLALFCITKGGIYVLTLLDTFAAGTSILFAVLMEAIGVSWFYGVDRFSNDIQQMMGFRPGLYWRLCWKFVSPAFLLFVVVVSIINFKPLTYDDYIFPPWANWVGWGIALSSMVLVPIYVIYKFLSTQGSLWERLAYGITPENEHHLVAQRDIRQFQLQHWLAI
# [20] = biological target: T1, Hepatocyte nuclear factor 4-alpha (Homo sapiens); assay: Selectivity interaction (Reporter gene assay) EUB0000182b HNF4A; set-up: recommended concentration 1 uM
# [21] = biological target: T2, Nuclear receptor subfamily 2 group C member 1 (Homo sapiens); assay: Selectivity interaction (Reporter gene assay) EUB0000182b NR2C1; set-up: recommended concentration 1 uM
# [22] = biological target: Nuclear receptor subfamily 2 group E member 1 (Homo sapiens) (UniProt Q9Y466); assay: Selectivity interaction (Reporter gene assay) EUB0000182b NR2E1; set-up: recommended concentration 1 uM
# [23] = biological target: Nuclear receptor subfamily 4immunitygroup A member 1 (Homo sapiens) (UniProt P22736); assay: Selectivity interaction (Reporter gene assay) EUB0000182b NR4A1; set-up: recommended concentration 1 uM
# [24] = biological target: Steroidogenic factor 1 (Homo sapiens) (UniProt Q13285); assay: Selectivity interaction (Reporter gene assay) EUB0000182b NR5A1; set-up: recommended concentration 1 uM
# [25] = biological target: T3, Alpha trans-inducing protein (Human alphaherpesvirus 1); assay: Selectivity interaction (Reporter gene assay) EUB0000182b UL48; set-up: recommended concentration 1 uM
# [26] = biological target: T4, Retinoic acid receptor RXR-alpha (Homo sapiens); assay: Selectivity interaction (Reporter gene assay) EUB0000182b RXRA; set-up: recommended concentration 1 uM; settings: reference bexarotene 1 uM, Selectivity number of off-targets 0.0, Selectivity number of targets 1.0, Source Knowledge inhouse
# [27] = biological target: T1, Hepatocyte nuclear factor 4-alpha (Homo sapiens); assay: Selectivity interaction (Reporter gene assay) EUB0000183b HNF4A; set-up: recommended concentration 3 uM
# [28] = biological target: T2, Nuclear receptor subfamily 2 group C member 1 (Homo sapiens); assay: Selectivity interaction (Reporter gene assay) EUB0000183b NR2C1; set-up: recommended concentration 3 uM
# [29] = biological target: Nuclear receptor subfamily 2 group E member 1 (Homo sapiens) (UniProt Q9Y466); assay: Selectivity interaction (Reporter gene assay) EUB0000183b NR2E1; set-up: recommended concentration 3 uM
# [30] = biological target: Nuclear receptor subfamily 4immunitygroup A member 1 (Homo sapiens) (UniProt P22736); assay: Selectivity interaction (Reporter gene assay) EUB0000183b NR4A1; set-up: recommended concentration 3 uM
# [31] = biological target: Steroidogenic factor 1 (Homo sapiens) (UniProt Q13285); assay: Selectivity interaction (Reporter gene assay) EUB0000183b NR5A1; set-up: recommended concentration 3 uM
# [32] = biological target: T3, Alpha trans-inducing protein (Human alphaherpesvirus 1); assay: Selectivity interaction (Reporter gene assay) EUB0000183b UL48; set-up: recommended concentration 3 uM
# [33] = biological target: T4, Retinoic acid receptor RXR-alpha (Homo sapiens); assay: Selectivity interaction (Reporter gene assay) EUB0000183b RXRA; set-up: recommended concentration 3 uM
# [34] = biological target: T3, Alpha trans-inducing protein (Human alphaherpesvirus 1); assay: Selectivity interaction (Reporter gene assay) EUB0000040b UL48; set-up: recommended concentration 1 uM
# [35] = biological target: Nuclear receptor subfamily 2 group E member 1 (Homo sapiens) (UniProt Q9Y466)
# [36] = biological target: Nuclear receptor subfamily 4immunitygroup A member 1 (Homo sapiens) (UniProt P22736)
smiles,measurement,setting,value
CN(CCOc1ccc(CC2SC(=O)NC2=O)cc1)c1ccccn1 (stereo unspecified),Fold activation,[1],1.09
same,Fold activation,[2],1.17
same,Fold activation,[3],1.05
same,Remaining activity,[4],0.964
same,Fold activation,[5],1.08
same,P-value,[6],2.07e-12
same,Relative activation,[7],1.04%
CC(C)(Sc1ccc(CCN(CCCCC2CCCCC2)C(=O)NC2CCCCC2)cc1)C(=O)O,Fold activation,[8],19.1
same,Remaining activity,[9],0.944
same,Fold activation,[10],1.49
same,Remaining activity,[11],0.915
same,Fold activation,[12],1.03
same,Remaining activity,[13],0.897
same,P-value,[14],2.26e-05
same,Relative activation,[15],0.845%
Nc1nc(NC2CC2)cc(-c2cccc(Cl)c2Cl)n1,Inhibition of control,[16],79%
same,Inhibition of control,[17],81%
same,Inhibition of control,[18],92%
same,Inhibition of control,[19],99%
COC(=O)/C=C/c1cccc(N(Cc2ccc(-c3ccc(N(C)C)cc3)cc2)C(=O)C2CCCCC2)c1,Fold activation,[20],1.05
same,Fold activation,[21],1.38
same,Fold activation,[22],1.24
same,Fold activation,[23],1.14
same,Fold activation,[24],1.09
same,P-value,[25],2.38e-08
same,Relative activation,[26],0.492%
Cc1cc(C)c(S(=O)(=O)N(Cc2ccc(-c3cccc(S(C)(=O)=O)c3)cc2)Cc2ccc(C(F)(F)F)o2)c(C)c1,Fold activation,[27],1.28
same,Fold activation,[28],1.06
same,Fold activation,[29],1.26
same,Remaining activity,[30],0.982
same,Fold activation,[31],1.29
same,P-value,[32],0.011
same,Relative activation,[33],0.984%
O=S(=O)(c1ccccc1)N(CC(F)(F)F)c1ccc(C(O)(C(F)(F)F)C(F)(F)F)cc1,P-value,[34],0.000575
same,Remaining activity,[35],0.742
same,Remaining activity,[36],0.903
